Columns and labels:
Musca domestica [1] = details: bioresmetrine = 100; cited from earlier work
Phaedon cochleariae = details: bioresmetrine = 100; cited from earlier work
T. confusum [2] = assay: Topical LD50 (Table 3); assay type: in vivo, 1-2 weeks' old imagos; details: topical, abdominal side
Protocol: (§1) In Table 3 the LD50 values of the Ig and Ii isomers and those of the Ib isomer-pair are disclosed. The data are topically measured.
(§2) The active ingredients are dissolved in 2-ethoxyethanol (cellosolve) and 0.3 μl droplets of the solutions are applied onto the dorsal cuticulum of 3-5 days' old female house flies. 10 animals are used and 2 parallels are carried out for each dose. The tests are carried out for 5 dose levels between activity limits of 0% and 100%. After treatment the flies are placed into glass vials. Mortality is determined after 24 hours. Data are transformed to log10 dosage and probit mortality. LD50 and confidence interval values are calculated by linear regression analysis of the log-probit data. The expected values required for the calculation of synergism are obtained by means of harmonic average. The synergistic factor is the quotient of the expected and measured values.
The active ingredients are dissolved in 2-ethoxyethanol and 0.3 μl droplets of the solutions are applied onto the abdominal side of 1-2 weeks' old imagos. Treatment is carried out with 2 parallels and 20 animals for each dose by using 5 dose levels in the range between activity limits of 0% and 100%. Evaluation and determination of LD50 values and synergistic factors are carried out as described in Example 21.

Musca domestica [3] = assay: Filter paper disc contact test (Table 11); assay type: in vivo, house fly (Musca domestica); details: Musca domestica, 24 h
Protocol: In Table 1 the activity of various stereoisomers of cypermethrin on the house fly (Musca domestica) is shown.
(§3) The active ingredient is dissolved in a 1:2 mixture of oil and acetone; filter paper discs (Whatman No. 1, diameter 9 cm) are impregnated with the solutions of the corresponding stereoisomers and enantiomer-pairs, respectively. The acetone is allowed to evaporate, whereupon the insects are exposed to filter papers discs placed in Petri-dishes. Three parallels are used on each dose and 15 insects are placed into each Petri-dish. The percental mortality is determined after 24 hours. The corrected percent mortality is calculated by means of the Abbot Formula.

T. confusum [4] = assay: Activity as function of time, toxic symptoms (Table 16); assay type: in vivo, flour beetle (T. confusum), imagos
Protocol: as §3
Activity of cypermethrin stereoisomer-pairs as function of time on flour beetle (T. Confusum).
Flour beetle (T. confusum) imagos are exposed in Petri-dishes according to the method described in Example 43. For each dose 3 parallels are used and 15 animals are applied for each parallel test. In each point of time the insects lying on their backs are counted and the percental results are expressed in Table 16.

T. confusum [5] = assay: Contact method, synergism between stereoisomers (Table 2); assay type: in vivo; details: Tribolium confusum, 24 h
Protocol: The stereoisomers are dissolved in a 1:2 mixture of mineral oil and acetone and filter paper discs (Whatman No. 1., diameter 9 cm) are impregnated with the corresponding dosage of the solution of the active ingredient. The acetone is allowed to evaporate and the insects are examined on filter paper discs placed into Petri-dishes. Three parallels are used for each dose and 15 animals are placed in each Petri-dish. Mortality rate is determined after 24 hours. The corrected mortality % data are calculated by means of the Abbot formula.
The test is carried out on T. confusum and the following results are obtained by the contact method for various active ingredient doses.
The test is carried out according to the method described in Example 20.

Tribolium confusum = assay: Contact test on Tribolium confusum (Table 12); assay type: in vivo; details: Tribolium confusum, 24 h
Protocol: as §3
It appears from Table 12 that the increased activity shown in Example 41 is due to the synergistic effect of the trans-isomers to Tribolium confusum.

Musca domestica [6] = assay: Topical LD50 (Table 3); assay type: in vivo, house fly (Musca domestica), 3-5 days' old females; details: topical, dorsal cuticulum; 24 hours
Protocol: as §1, §2

For CC1(C)[C@H](C=C(Cl)Cl)[C@H]1C(=O)O[C@@H](C#N)c1cccc(Oc2ccccc2)c1 [1RtransR], the “activity related to bioresmetrine (100)” value (Musca domestica [1]) is given as 81 and the “activity related to bioresmetrine (100)” value (Phaedon cochleariae) is given as 110.

For CC1(C)[C@H](C=C(Cl)Cl)[C@H]1C(=O)O[C@H](C#N)c1cccc(Oc2ccccc2)c1 [Ig], the LD50 measured (T. confusum [2]) is listed as 73.6 ng/insect, the “activity related to bioresmetrine (100)” value (Musca domestica [1]) is listed as 1400 and the mortality at 40 µg/disc (Musca domestica [3]; 0.04 mg/disc) is listed as 48%. The mortality at 110 µg/disc (Musca domestica [3]; 0.11 mg/disc) was 68%, the mortality at 330 µg/disc (Musca domestica [3]; 0.33 mg/disc) was 83% and the mortality at 1000 µg/disc (Musca domestica [3]; 1.00 mg/disc) was 100%. The mortality at 3000 µg/disc (Musca domestica [3]; 3.00 mg/disc) was 100%, the “activity related to bioresmetrine (100)” value (Phaedon cochleariae) was 2200 and the “% of insects showing toxic symptoms” value (T. confusum [4]; 30 minutes) was 0%. The “% of insects showing toxic symptoms” value (T. confusum [4]; 30 minutes, 0.33 mg/disc) was 0%, the “% of insects showing toxic symptoms” value (T. confusum [4]; 30 minutes, 1.00 mg/disc) was 15% and the “% of insects showing toxic symptoms” value (T. confusum [4]; 30 minutes, 3.00 mg/disc) was 68%. For the same compound, the “% of insects showing toxic symptoms” value (T. confusum [4]; 60 minutes) was 18%, the “% of insects showing toxic symptoms” value (T. confusum [4]; 60 minutes, 0.33 mg/disc) was 34% and the “% of insects showing toxic symptoms” value (T. confusum [4]; 60 minutes, 1.00 mg/disc) was 98%. The “% of insects showing toxic symptoms” value (T. confusum [4]; 60 minutes, 3.00 mg/disc) was 100%, the “% of insects showing toxic symptoms” value (T. confusum [4]; 120 minutes) was 30% and the “% of insects showing toxic symptoms” value (T. confusum [4]; 120 minutes, 0.33 mg/disc) was 70%. For the same compound, the “% of insects showing toxic symptoms” value (T. confusum [4]; 120 minutes, 1.00 mg/disc) was 100%, the “% of insects showing toxic symptoms” value (T. confusum [4]; 120 minutes, 3.00 mg/disc) was 100% and the “% of insects showing toxic symptoms” value (T. confusum [4]; 180 minutes) was 34%. For the same compound, the “% of insects showing toxic symptoms” value (T. confusum [4]; 180 minutes, 0.33 mg/disc) was 84%, the “% of insects showing toxic symptoms” value (T. confusum [4]; 180 minutes, 1.00 mg/disc) was 100% and the “% of insects showing toxic symptoms” value (T. confusum [4]; 180 minutes, 3.00 mg/disc) was 100%. It also gave a mortality at 110 µg/disc (T. confusum [5]; 0.11 mg/disc) of 80%, a mortality at 330 µg/disc (T. confusum [5]; 0.33 mg/disc) of 94% and a mortality at 1000 µg/disc (T. confusum [5]; 1.00 mg/disc) of 100%. It also gave a mortality at 3000 µg/disc (T. confusum [5]; 3.00 mg/disc) of 100%, a mortality at 110 µg/disc (Tribolium confusum; 0.11 mg/disc) of 70% and a mortality at 330 µg/disc (Tribolium confusum; 0.33 mg/disc) of 92%. For the same compound, the mortality at 1000 µg/disc (Tribolium confusum; 1.00 mg/disc) was 100%, the mortality at 3000 µg/disc (Tribolium confusum; 3.00 mg/disc) was 100% and the LD50 measured (Musca domestica [6]) was 13.4 ng/insect.
